molecular target: Calcium-activated potassium channel subunit alpha-1 (Homo sapiens) (UniProt Q12791); assay: Activation of human BKalpha channel expressed in CHOK1 cells assessed as increase in ionic current at 30 uM relative to control; type: cell-based; settings: CHO-K1
Sequence (Q12791 whole entry): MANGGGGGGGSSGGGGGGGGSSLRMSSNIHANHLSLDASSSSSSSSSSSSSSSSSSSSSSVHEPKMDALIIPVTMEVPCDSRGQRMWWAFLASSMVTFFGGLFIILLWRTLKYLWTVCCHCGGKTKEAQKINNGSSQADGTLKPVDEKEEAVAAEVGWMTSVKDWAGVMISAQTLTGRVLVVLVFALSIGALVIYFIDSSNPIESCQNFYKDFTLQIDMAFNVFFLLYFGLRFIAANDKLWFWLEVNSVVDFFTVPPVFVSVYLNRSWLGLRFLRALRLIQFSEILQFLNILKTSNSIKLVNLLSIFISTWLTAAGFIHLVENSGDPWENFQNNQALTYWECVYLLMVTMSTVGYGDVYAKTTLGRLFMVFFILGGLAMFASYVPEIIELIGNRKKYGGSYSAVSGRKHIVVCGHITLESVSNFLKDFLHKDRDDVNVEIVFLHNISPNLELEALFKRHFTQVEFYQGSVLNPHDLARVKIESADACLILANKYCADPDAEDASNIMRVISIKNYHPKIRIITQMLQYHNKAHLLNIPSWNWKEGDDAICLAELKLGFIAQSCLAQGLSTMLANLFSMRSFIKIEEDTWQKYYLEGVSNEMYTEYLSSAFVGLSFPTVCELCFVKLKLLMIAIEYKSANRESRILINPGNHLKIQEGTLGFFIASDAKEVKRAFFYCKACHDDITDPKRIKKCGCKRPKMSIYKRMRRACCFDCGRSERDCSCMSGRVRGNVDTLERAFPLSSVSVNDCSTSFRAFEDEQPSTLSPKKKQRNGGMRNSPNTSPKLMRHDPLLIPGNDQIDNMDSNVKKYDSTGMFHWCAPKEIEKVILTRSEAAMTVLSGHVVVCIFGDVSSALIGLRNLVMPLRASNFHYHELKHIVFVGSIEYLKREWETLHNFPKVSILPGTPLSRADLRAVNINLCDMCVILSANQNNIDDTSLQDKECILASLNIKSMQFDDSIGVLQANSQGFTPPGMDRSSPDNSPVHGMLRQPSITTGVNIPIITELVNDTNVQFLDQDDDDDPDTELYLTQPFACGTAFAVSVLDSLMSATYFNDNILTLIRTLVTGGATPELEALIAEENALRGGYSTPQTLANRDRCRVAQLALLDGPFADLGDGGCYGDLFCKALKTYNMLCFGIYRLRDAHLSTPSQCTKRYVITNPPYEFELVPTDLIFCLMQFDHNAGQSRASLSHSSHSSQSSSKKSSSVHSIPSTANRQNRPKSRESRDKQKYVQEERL

Question: How did the Activity turn out when C[C@]1(C(=O)O)CCC[C@]2(C)c3cc(OCc4ccc(Cl)cc4)ccc3CC[C@@H]12 was run?
Answer: Its Activity is 121%.

Question: With C[C@]1(C(=O)O)CCC[C@]2(C)c3cc(OCc4ccc(C#N)cc4)ccc3CC[C@@H]12 as the compound, how does the Activity read?
Answer: Its Activity is 116%.

Question: Which Activity does the source give for CC(C)(C)c1ccc(COc2ccc3c(c2)[C@@]2(C)CCC[C@](C)(C(=O)O)[C@@H]2CC3)cc1 here?
Answer: The Activity was 116%.

Question: Which Activity does the source give for C[C@]1(C(=O)O)CCC[C@]2(C)c3cc(OCc4ccc(OC(F)(F)F)cc4)ccc3CC[C@@H]12 here?
Answer: Its Activity is 139%.

Question: With COc1ccc2c(c1)[C@@]1(C)CCC[C@](C)(C(=O)O)[C@@H]1CC2 as the compound, how does the Activity read?
Answer: Its Activity is 124%.

Question: With C=CCOc1ccc2c(c1)[C@@]1(C)CCC[C@](C)(C(=O)O)[C@@H]1CC2 as the compound, how does the Activity read?
Answer: The Activity was 148%.

Question: Which Activity does the source give for CC(C)c1ccc(COc2ccc3c(c2)[C@@]2(C)CCC[C@](C)(C(=O)O)[C@@H]2CC3)cc1 here?
Answer: The Activity was 125%.

Question: How did the Activity turn out when C[C@]1(C(=O)O)CCC[C@]2(C)c3cc(OCCOCc4ccccc4)ccc3CC[C@@H]12 was run?
Answer: The Activity was 124%.

Question: How did the Activity turn out when C[C@]1(C(=O)O)CCC[C@]2(C)c3cc(OCCN4CCCCC4)ccc3CC[C@@H]12 was run?
Answer: The Activity was 103%.

Question: With C[C@]1(C(=O)O)CCC[C@]2(C)c3cc(OCc4ccccc4)ccc3CC[C@@H]12 as the compound, how does the Activity read?
Answer: The Activity was 209%.

Question: Which Activity does the source give for C[C@]1(C(=O)O)CCC[C@]2(C)c3cc(OCc4ccc5ccccc5c4)ccc3CC[C@@H]12 here?
Answer: The Activity was 122%.

Question: How did the Activity turn out when COc1ccc(COc2ccc3c(c2)[C@@]2(C)CCC[C@](C)(C(=O)O)[C@@H]2CC3)cc1 was run?
Answer: The Activity was 109%.

Question: How did the Activity turn out when Cc1ccc(COc2ccc3c(c2)[C@@]2(C)CCC[C@](C)(C(=O)O)[C@@H]2CC3)cc1 was run?
Answer: The Activity was 151%.

Question: With CCCOc1ccc2c(c1)[C@@]1(C)CCC[C@](C)(C(=O)O)[C@@H]1CC2 as the compound, how does the Activity read?
Answer: Its Activity is 170%.

Question: Which Activity does the source give for Cc1ccccc1COc1ccc2c(c1)[C@@]1(C)CCC[C@](C)(C(=O)O)[C@@H]1CC2 here?
Answer: Its Activity is 88.9%.

Question: Which Activity does the source give for CC(C)Oc1ccc2c(c1)[C@@]1(C)CCC[C@](C)(C(=O)O)[C@@H]1CC2 here?
Answer: The Activity was 134%.

Question: Which Activity does the source give for C[C@]1(C(=O)O)CCC[C@]2(C)c3cc(OCC4CCCCC4)ccc3CC[C@@H]12 here?
Answer: The Activity was 124%.

Question: COC(=O)[C@@]1(C)CCC[C@]2(C)c3cc(O)ccc3CC[C@@H]12 was tested. Which Activity did it give?
Answer: Its Activity is 118%.

Question: With C[C@]1(C(=O)O)CCC[C@]2(C)c3cc(O)ccc3CC[C@@H]12 as the compound, how does the Activity read?
Answer: The Activity was 207%.

Question: Which Activity does the source give for COC(=O)[C@@]1(C)CCC[C@]2(C)c3cc(OCCCc4ccccc4)ccc3CC[C@@H]12 here?
Answer: Its Activity is 116%.

Question: How did the Activity turn out when C[C@]1(C(=O)O)CCC[C@]2(C)c3cc(OCCCc4ccccc4)ccc3CC[C@@H]12 was run?
Answer: Its Activity is 244%.

Question: How did the Activity turn out when C[C@]1(C(=O)O)CCC[C@]2(C)c3cc(OCc4ccc(C(F)(F)F)cc4)ccc3CC[C@@H]12 was run?
Answer: The Activity was 185%.

Question: With Cc1cc(C)cc(COc2ccc3c(c2)[C@@]2(C)CCC[C@](C)(C(=O)O)[C@@H]2CC3)c1 as the compound, how does the Activity read?
Answer: The Activity was 130%.
